Experimental findings from patent US11529347B2, “SHP2 phosphatase inhibitors and methods of use thereof” (Relay Therapeutics, Inc., priority 2016, dated 2022) are described below.

As a reminder, the IC50 is the point on the concentration scale where inhibition reaches its midpoint. A low value points to inhibition by little substance.

SHP2, sequence (Q06124 whole entry): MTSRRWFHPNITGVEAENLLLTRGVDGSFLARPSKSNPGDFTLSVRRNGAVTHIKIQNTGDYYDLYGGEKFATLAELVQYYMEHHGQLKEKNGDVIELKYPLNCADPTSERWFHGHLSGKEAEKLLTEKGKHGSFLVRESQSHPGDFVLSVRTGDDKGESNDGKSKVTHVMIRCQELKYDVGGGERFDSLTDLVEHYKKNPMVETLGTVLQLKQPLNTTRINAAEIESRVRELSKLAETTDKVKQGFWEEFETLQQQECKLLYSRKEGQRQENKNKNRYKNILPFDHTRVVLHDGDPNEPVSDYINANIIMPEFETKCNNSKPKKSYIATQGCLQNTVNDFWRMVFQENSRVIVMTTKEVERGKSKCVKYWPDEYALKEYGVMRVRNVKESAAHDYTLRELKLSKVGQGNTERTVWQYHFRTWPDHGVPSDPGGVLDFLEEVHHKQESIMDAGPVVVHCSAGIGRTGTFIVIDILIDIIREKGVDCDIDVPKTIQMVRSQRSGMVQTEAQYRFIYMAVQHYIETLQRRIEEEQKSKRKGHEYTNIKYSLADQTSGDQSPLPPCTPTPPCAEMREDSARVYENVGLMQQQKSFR

The target in the assay is SHP2 (Homo sapiens (Human), UniProt Q06124). The assay can be described thus: SHP2 Allosteric Inhibition Assay (DiFMUP prompt fluorescence). The conditions noted are these: 0.25 nM SHP2 activated with 0.5 μM peptide IRS1_pY1172(dPEG8)pY1222; substrate DiFMUP 100 μM. In kind it is biochemical. The source says:
SHP2 is allosterically activated through binding of bis-tyrosyl-phosphorylated peptides to its Src Homology 2 (SH2) domains. The latter activation step leads to the release of the auto-inhibitory interface of SHP2, which in turn renders the SHP2 protein tyrosine phosphatase (PTP) active and available for substrate recognition and reaction catalysis. The catalytic activity of SHP2 was monitored using the surrogate substrate DiFMUP in a prompt fluorescence assay format.
The inhibitor dose response curves were analyzed using normalized IC50 regression curve fitting with control based normalization.
`CC1(N)CCN(c2cnc3c(-c4ccccc4Cl)n[nH]c3n2)CC1` [Compound 6]: the IC50 was < 10 µM.

In the case of `Clc1ccccc1-c1n[nH]c2nc(N3C4CCCC3CC4)cnc12` [Compound 8], the IC50 is 10 to 100 µM. As to `N[C@H]1CC12CCN(c1cnc3c(-c4ccccc4Cl)n[nH]c3n1)CC2` [Compound 9], the IC50 is < 10 µM. Take `CC1(CN)CCN(c2cnc3c(-c4cccc(Cl)c4Cl)n[nH]c3n2)CC1` [Compound 10]: the IC50 was < 10 µM.

In the case of `O=C1NCC2(CCN(c3cnc4c(-c5ccccc5Cl)n[nH]c4n3)CC2)N1` [Compound 11], the IC50 lay within 10 to 100 µM. For the compound `NC(=O)C1(N)CCN(c2cnc3c(-c4cccc(Cl)c4)n[nH]c3n2)CC1` [Compound 12], the IC50 was < 10 µM. Consider `CC1(CN)CCCN(c2cnc3c(-c4ccccc4Cl)n[nH]c3n2)CC1` (stereo not shown) [Compound 13], for which the IC50 is < 10 µM. Consider `CC(C)(N)C1CCN(c2cnc3c(-c4ccccc4Cl)n[nH]c3n2)CC1` [Compound 14], for which the IC50 was 10 to 100 µM. Take `CC1(CN)CCN(c2cnc3c(-c4ccccc4)n[nH]c3n2)CC1` [Compound 15]: the IC50 was < 10 µM. Regarding `N[C@@H]1CCCC12CCN(c1cnc3c(-c4ccccc4Cl)n[nH]c3n1)CC2` [Compound 16], the IC50 is < 10 µM. For `CC1(N)CCN(c2cnc3c(-c4ccc(Cl)cc4)n[nH]c3n2)CC1` [Compound 17], the IC50 was < 10 µM. With `NC1CC12CCN(c1cnc3c(-c4ccccc4Cl)n[nH]c3n1)CC2` (stereo not shown) [Compound 18], the IC50 was < 10 µM. The figure for `CC1(CN)CCN(c2cnc3c(-c4ccncc4)n[nH]c3n2)CC1` [Compound 19] is < 10 µM. For the compound `NCC1(O)CCCN(c2cnc3c(-c4ccccc4Cl)n[nH]c3n2)CC1` (stereo not shown) [Compound 20], the IC50 was < 10 µM. Turning to `CC1(CN)CCN(c2cnc3c(-c4ncccc4Cl)n[nH]c3n2)CC1` [Compound 22], the IC50 lay in the range of 10 to 100 µM.

As to `NCC1(F)CCN(c2cnc3c(-c4ccccc4Cl)n[nH]c3n2)CC1` [Compound 24], the IC50 was < 10 µM. As for `NCC1(O)CCN(c2cnc3c(-c4cccc(Cl)c4)n[nH]c3n2)CC1` [Compound 25], the IC50 is < 10 µM. Consider `N[C@H]1CCC12CCN(c1cnc3c(-c4ccccc4Cl)n[nH]c3n1)CC2` [Compound 26], for which the IC50 was < 10 µM. As to `NCC1CCN(c2cnc3c(-c4cccc(Cl)c4)n[nH]c3n2)C1` (stereo not shown) [Compound 27], the IC50 was < 10 µM. With `NC1CCC12CCN(c1cnc3c(-c4ccccc4Cl)n[nH]c3n1)CC2` (stereo not shown) [Compound 28], the IC50 is < 10 µM. Take `CC1(CN)CCN(c2cnc3c(-c4ccc(Cl)cc4)n[nH]c3n2)CC1` [Compound 29]: the IC50 was < 10 µM. The figure for `NC(CO)C1CCN(c2cnc3c(-c4ccccc4Cl)n[nH]c3n2)CC1` (stereo not shown) [Compound 30] is < 10 µM; for `CC1(N)CCN(c2cnc3c(-c4cccc(Cl)c4)n[nH]c3n2)CC1` [Compound 31] it is < 10 µM; for `COC1(CN)CCN(c2cnc3c(-c4ccccc4Cl)n[nH]c3n2)CC1` [Compound 32] it is < 10 µM. `N[C@H]1CCN(c2cnc3c(-c4ccccc4Cl)n[nH]c3n2)C[C@@H]1O` [Compound 33]: the IC50 was < 10 µM. With `CC1(CN)CCN(c2cnc3c(-c4cccc(Cl)c4Br)n[nH]c3n2)CC1` [Compound 34], the IC50 was < 10 µM. As to `N[C@H]1CCCC12CCN(c1cnc3c(-c4ccccc4Cl)n[nH]c3n1)CC2` [Compound 35], the IC50 is < 10 µM. For the compound `CNCC1(C)CCN(c2cnc3c(-c4ccccc4Cl)n[nH]c3n2)CC1` [Compound 36], the IC50 lay within 10 to 100 µM. With `N[C@@H]1CCC12CCN(c1cnc3c(-c4ccccc4Cl)n[nH]c3n1)CC2` [Compound 37], the IC50 is 10 to 100 µM. The figure for `NC1CCN(c2cnc3c(-c4ccccc4Cl)n[nH]c3n2)CC1` [Compound 38] is < 10 µM. With `COc1cccc(-c2n[nH]c3nc(N4CCC(C)(CN)CC4)cnc23)c1Cl` [Compound 39], the IC50 was < 10 µM. Turning to `NCC1CCCN(c2cnc3c(-c4ccccc4Cl)n[nH]c3n2)CC1` (stereo not shown) [Compound 40], the IC50 is < 10 µM.

`Clc1ccccc1-c1n[nH]c2nc(N3CCC4(CCCN4)CC3)cnc12` [Compound 41]: the IC50 was < 10 µM. With `COCC1(CN)CCN(c2cnc3c(-c4ccccc4Cl)n[nH]c3n2)CC1` [Compound 42], the IC50 is < 10 µM. In the case of `CC1(CN)CCN(c2cnc3c(-c4ccccc4Cl)n[nH]c3n2)CC1` [Compound 43], the IC50 was < 10 µM. The figure for `Clc1ccccc1-c1n[nH]c2nc(N3CC4CNCC4C3)cnc12` (stereo not shown) [Compound 44] is < 10 µM. Consider `Clc1cccc(-c2n[nH]c3nc(N4CCCCC4)cnc23)c1Cl` [Compound 45], for which the IC50 is > 100 µM. The figure for `NCC1(N)CCN(c2cnc3c(-c4ccccc4Cl)n[nH]c3n2)CC1` [Compound 46] is < 10 µM; for `CC(N)C1CCN(c2cnc3c(-c4ccccc4Cl)n[nH]c3n2)CC1` (stereo not shown) [Compound 47] it is < 10 µM. Take `CC1(CN)CCN(c2cnc3c(-c4cccc(Cl)c4F)n[nH]c3n2)CC1` [Compound 48]: the IC50 is < 10 µM. `N[C@@H]1CC12CCN(c1cnc3c(-c4ccccc4Cl)n[nH]c3n1)CC2` [Compound 49] displayed an IC50 of 10 to 100 µM. For `CC1(CN)CCN(c2cnc3c(-c4cccc(Cl)c4)n[nH]c3n2)CC1` [Compound 50], the IC50 is < 10 µM.

In the case of `NCC1(CO)CCN(c2cnc3c(-c4ccccc4Cl)n[nH]c3n2)CC1` [Compound 51], the IC50 is < 10 µM.

`NCC1(O)CCN(c2cnc3c(-c4ccccc4Cl)n[nH]c3n2)CC1` [Compound 52]: the IC50 was < 10 µM.

`O=C1NCC2(CCCN(c3cnc4c(-c5ccccc5Cl)n[nH]c4n3)CC2)O1` (stereo not shown) [Compound 53]: the IC50 is 10 to 100 µM. In the case of `COc1ccccc1-c1n[nH]c2nc(N3CCC(C)(CN)CC3)cnc12` [Compound 54], the IC50 is < 10 µM. On to `Clc1ccccc1-c1n[nH]c2nc(N3CCC4(CCNC4)C3)cnc12` (stereo not shown) [Compound 55], for which the 50% inhibitory concentration (IC50) lay within 10 to 100 µM. As to `NC1(CO)CCN(c2cnc3c(-c4ccccc4Cl)n[nH]c3n2)CC1` [Compound 56], the IC50 is < 10 µM.

Turning to `N[C@@H]1[C@H]2CN(c3cnc4c(-c5cccc(Cl)c5)n[nH]c4n3)C[C@@H]12` [Compound F21], the IC50 was < 10 µM.
